Read-outs that look alike come from different tables or passages of the source.
What was measured:
[1] = target: T1, human recombinant USP2a catalytic domain (residues 258-605) (Homo sapiens, UniProt O75604); test: Ub-AMC hydrolysis assay; conditions: 30 min pre-incubation; for IC50: read-out: IC50, USP2a activity, Ub-AMC Assay
T1 sequence (O75604 258-605): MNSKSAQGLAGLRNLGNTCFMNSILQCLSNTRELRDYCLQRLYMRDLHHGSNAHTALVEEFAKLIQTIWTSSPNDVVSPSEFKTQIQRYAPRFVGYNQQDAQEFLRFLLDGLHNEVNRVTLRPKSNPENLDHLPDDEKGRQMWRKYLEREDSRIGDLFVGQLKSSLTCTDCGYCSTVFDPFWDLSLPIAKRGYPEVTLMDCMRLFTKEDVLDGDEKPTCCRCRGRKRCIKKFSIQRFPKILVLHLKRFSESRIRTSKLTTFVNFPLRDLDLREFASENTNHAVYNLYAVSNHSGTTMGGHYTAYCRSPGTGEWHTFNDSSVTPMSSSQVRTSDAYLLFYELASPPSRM
Experimental: (§4) The assays were performed using Infinite 200 PRO – Tecan plate reader and 96-well, black Greiner microplates in a 100 μl reaction volume.
Ub-AMC-hydrolysis assay was performed in a reaction buffer (50 mM Tris/HCl, pH=7.5, 1 mM EDTA, 1 mM MgCl2).
(§5) All assays were performed simultaneously in triplicate and results are presented as mean values ± SD.

[2] = target: T1, human recombinant USP2a catalytic domain (residues 258-605); test: Di-Ub K63-2 hydrolysis (FRET) assay; conditions: read-out: IC50, USP2a activity, Di-Ub Assay; Di-Ub K63-2, 30 min pre-incubation
Experimental: as §4
Di-Ub K63-2 hydrolysis assay was performed in 50 mM Tris/HCl pH=7.5, 1mM DTT. USP2a (20 nM) was preincubated with an excess of tested compound for 30 min. Fluorescence changes were recorded at excitation and emission wavelengths of 540 nm and 580 nm respectively, immediately after Di-Ub (200 nM, LifeSensors) addition.
as §5

HCT116 p53^wt cells [3] = test: Western blot analysis of protein expression; format: cell-based, Human; conditions: 5 or 20 μM, 48 hr
Source text: (§1) The progression from G1 to S phase relies largely on the expression and activity of D cyclins. To verify whether the observed impairment in cell-cycle progression following LCAHA treatment is associated with D cyclins, we investigated the expression of cyclins D1 and D3 in HCT116 p53^wt and HCT116 p53^−/− cells.

HCT116 p53^−/− cells [4] = test: Western blot analysis of protein expression; format: cell-based, Human; conditions: 5 or 20 μM, 48 hr
Source text: as §1

HCT116 p53^wt cells [5] = test: MTT assay (cell viability), 6 days treatment; format: cell-based, Human; conditions: for growth-inhibitory (GI) properties: cell-based assay (discussion); for LD50 (concentration killing 50% of cells): Homo sapiens, HCT-116, 144 h, read-out: LD50
Experimental: (§2) To test the biological activity of the compounds, we performed MTT (3-(4,5-dimethylthiazol-2-yl)-2,5-diphenyltetrazolium bromide) and lactate dehydrogenase (LDH) release assays. […] To track not only the toxic (lethal) but also growth-inhibitory (GI) effect in the MTT assay, we treated the cells for 6 days.
(§3) For MTT assay, the cells were seeded on 96-well transparent plates and treated the next day with the compounds or DMSO for 6 days. Thiazolyl Blue Tetrazolium Bromide (MTT, Sigma Aldrich) was added for 60 minutes to a final concentration of […]. The medium was removed and MTT crystals were dissolved in isopropanol supplemented with 40 mM HCl. The absorbance was measured with Infinite 200 microplate reader (Tecan Group Ltd.) at 570 nm with the reference wavelength 650 nm for background subtraction.

USP7 = target: T2, USP7 (Homo sapiens, UniProt Q93009); test: Ub-AMC assay, USP7 selectivity; format: biochemical; conditions: 10 μM
T2 construct: Human USP7 catalytic domain (residues 208-561) was cloned into the pGEX-6P-1 vector; GST (N, cleaved yes); made in house; host or cells: E. coli BL21 (DE3)
T2 sequence (Q93009 208-561): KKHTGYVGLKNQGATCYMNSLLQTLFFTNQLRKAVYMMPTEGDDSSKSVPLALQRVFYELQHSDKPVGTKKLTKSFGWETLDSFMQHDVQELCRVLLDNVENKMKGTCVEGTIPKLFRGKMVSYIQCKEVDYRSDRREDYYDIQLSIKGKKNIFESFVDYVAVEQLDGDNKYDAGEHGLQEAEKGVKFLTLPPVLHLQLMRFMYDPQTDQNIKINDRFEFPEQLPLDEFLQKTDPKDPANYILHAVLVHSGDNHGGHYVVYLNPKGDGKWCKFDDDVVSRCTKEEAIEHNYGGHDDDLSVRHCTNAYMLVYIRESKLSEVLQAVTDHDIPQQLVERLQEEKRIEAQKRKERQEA
Experimental: Cells were grown in LB medium containing 100 μg/ml ampicillin at 37 °C and induced with 0.5 mM IPTG at OD600 of 0.7-0.9 and cultured overnight at 16 °C. Cells were harvested by centrifugation. Next cells were resuspended in buffer A (50 mM Tris/HCl pH 9.0, 50 mM NaCl, 3 mM β-mercapthoetanol) and disrupted by sonication. Cell lysate were clarified by centrifugation (45 000 g, 40 min.) and dialyzed against buffer A. Supernatant was loaded onto Q-Sepharose column and proteins were eluted with NaCl gradient. Fractions containing GST fused USP7 were combined, concentrated and dialyzed against buffer (50 mM Tris/HCl pH 7.0, 50 mM NaCl, 3 mM β-mercapthoetanol). During dialysis protein was digested with PreScission Protease (GE Healthcare). USP7 protein and cleaved GST were separated on Mono Q HR 10/10 column (GE Healthcare). The last purification step consisted of size exclusion chromatography on HiLoad 16/60 Superdex 75 prep grade (GE Healthcare) in 50 mM Tris/HCl, 150 mM NaCl, 2 mM DTT.

HCT116 p53^wt cells [6] = test: Western blot analysis of protein expression; format: cell-based, Human; conditions: for expression of p27: 5 or 20 μM, 48 hr, HCT116 cells (Figures 2A and S3A); for expression of proteins encoded by p53-target genes (MDM2 and p21) and of p53: 24 or 48 hr
HCT116 p53^−/− cells [7] = test: MTT assay (cell viability), 6 days treatment; format: cell-based, Human
Experimental: as §2, §3

[8] = Solubility problems in cell line experiment or enzymatic assay; format: physicochemical; conditions: in either the cell line experiment or the enzymatic assay
USP2a = test system: USP2a; set-up: method as in Nicholson et al., 2008; conditions: ref Nicholson et al., 2008; read-out: EC50 (previously reported); cited from earlier work
HCT116 p53^wt cells [9] = test: Caspase 3/7 activity (Caspase-Glo 3/7); format: cell-based, Human; conditions: staurosporine treatment (apoptosis inducer control)
Experimental: To evaluate whether the observed effects are accompanied by the induction of apoptosis, we examined the activation of caspases 3 and 7 in HCT116 p53^wt cells.
The cells were plated on the 96-well white, flat bottom plates (Falcon) and treated with DMSO, LCAHA or Staurosporine. For the detection of caspase activity Caspase-Glo 3/7 Assay System was used (Promega) according to the manufacturer’s instructions.

[10] = Homo sapiens, HCT-116, 144 h, read-out: LD50

With C[C@H](CCC(=O)O)[C@H]1CC[C@H]2[C@@H]3[C@H](O)C[C@@H]4C[C@H](O)CC[C@]4(C)[C@H]3C[C@H](O)[C@]12C [CGG, cholic acid, reference compound] the “IC50, USP2a activity, Ub-AMC Assay” value [1] was “not active” and the IC50 [2] was > 100 µM.

For C[C@H](CCC(=O)O)[C@H]1CC[C@H]2[C@@H]3CC[C@@H]4C[C@H](O)CC[C@]4(C)[C@H]3CC[C@]12C [LCA, Lithocholic acid, reference compound], the IC50 [1] was 31.1 ± 3.4 µM, the “cyclin D1 expression” value (HCT116 p53^wt cells [3]) was “did not affect” and the “cyclin D3 expression” value (HCT116 p53^wt cells [3]) was “significantly increased”. The “cyclin D1 expression” value (HCT116 p53^−/− cells [4]) was “did not affect”, the “cyclin D3 expression” value (HCT116 p53^−/− cells [4]) was “significantly increased” and the “growth-inhibitory (GI) properties” value (HCT116 p53^wt cells [5]) was “inactive in the inhibition of cell growth”. For the same molecule, the “inhibition of USP7 protein activity” value (USP7) was “no inhibition”, the IC50 [2] was 32 ± 3.2 µM and the “expression of p27” value (HCT116 p53^wt cells [6]) was “not altered”. The “expression of proteins encoded by p53-target genes (MDM2 and p21) and of p53” value (HCT116 p53^wt cells [6]) was “did not induce”.

C[C@H](CCC(=O)NCC#N)[C@H]1CC[C@H]2[C@@H]3CC[C@@H]4C[C@H](O)CC[C@]4(C)[C@H]3CC[C@]12C [LCACN, N-(cyanomethyl)-3-hydroxylithocholanamide] showed an IC50 [1] of 7.4 ± 1.2 µM, an LD50 (concentration killing 50% of cells) (HCT116 p53^wt cells [5]) of 28 ± 0.7 µM and an LD50 (HCT116 p53^−/− cells [7]; [10]) of 29.9 ± 3.2 µM. The solubility [8] was “solubility problems” and the IC50 [2] was 13.9 ± 2.3 µM.

For CC(=O)O[C@@H]1CC[C@@]2(C)[C@H](CC[C@@H]3[C@@H]2CC[C@]2(C)[C@@H]([C@H](C)CCC(=O)O)CC[C@@H]32)C1 [LCAE, 3-Acetoxy-Lithocholic Acid], the “cyclin D1 expression” value (HCT116 p53^wt cells [3]) was “decreased the expression of the protein”, the “cyclin D3 expression” value (HCT116 p53^wt cells [3]) was “no effect” and the “cyclin D3 expression” value (HCT116 p53^−/− cells [4]) was “no effect”. The “growth-inhibitory (GI) properties” value (HCT116 p53^wt cells [5]) was “no GI properties”, the “expression of p27” value (HCT116 p53^wt cells [6]) was “not altered” and the “expression of proteins encoded by p53-target genes (MDM2 and p21) and of p53” value (HCT116 p53^wt cells [6]) was “did not induce”.

In the case of C[C@H](CCC(=O)NCC(=O)O)[C@H]1CC[C@H]2[C@@H]3CC[C@@H]4C[C@H](O)CC[C@]4(C)[C@H]3CC[C@]12C [LCAGLY, N-(3-hydroxylithocholanolyl)glycine], the IC50 [1] is reported as > 50 µM and the IC50 [2] is reported as > 50 µM.

In the case of C[C@H](CCC(=O)O)[C@H]1CC[C@H]2[C@@H]3CC[C@@H]4CC(=O)CC[C@]4(C)[C@H]3CC[C@]12C [LCAK, 3-Oxo-Lithocholic Acid], the IC50 [1] is reported as 32 ± 1.8 µM and the IC50 [2] is reported as 33.1 ± 3.2 µM.

With COC(=O)CC[C@@H](C)[C@H]1CC[C@H]2[C@@H]3CC[C@@H]4C[C@H](O)CC[C@]4(C)[C@H]3CC[C@]12C [LCAME, Methyl 3-Hydroxylithocholanoate] the IC50 [1] was > 50 µM, the LD50 (HCT116 p53^wt cells [5]; HCT116^wt, MTT assay, 6 days) was 20.5 ± 1.1 µM and the LD50 (HCT116 p53^−/− cells [7]; HCT116 p53^−/−, MTT assay, 6 days) was 35.1 ± 4.8 µM. The IC50 [2] was > 50 µM.

With C[C@H](CCC(=O)N1CCOCC1)[C@H]1CC[C@H]2[C@@H]3CC[C@@H]4C[C@H](O)CC[C@]4(C)[C@H]3CC[C@]12C [LCAMR, N-lithocholanolyl Morpholine] the IC50 [1] was > 100 µM, the LD50 (concentration killing 50% of cells) (HCT116 p53^wt cells [5]) was 8.2 ± 0.7 µM and the LD50 (HCT116 p53^−/− cells [7]; [10]) was 7.9 ± 0.7 µM. For the same molecule, the IC50 [2] was > 100 µM.

For C[C@H](CCC(N)=O)[C@H]1CC[C@H]2[C@@H]3CC[C@@H]4C[C@H](O)CC[C@]4(C)[C@H]3CC[C@]12C [LCANH2, 3-hydroxylithocholanamide], the IC50 [1] was 27.9 ± 1 µM, the LD50 (concentration killing 50% of cells) (HCT116 p53^wt cells [5]) was 24.5 ± 0.9 µM and the LD50 (HCT116 p53^−/− cells [7]; [10]) was 41.8 ± 2.7 µM. For the same molecule, the IC50 [2] was 16.7 ± 1.3 µM.

In the case of Cc1ccc(/C=C2\CNC/C(=C\c3ccc(C)cc3)C2=O)cc1 [NSC 632839, reference compound], the IC50 [1] is listed as 39.1 ± 6.4 µM, the EC50 (USP2a) is listed as 45 ± 4 µM and the IC50 [2] is listed as > 50 µM.

In the case of C[C@H](CCC(=O)NCCS(=O)(=O)O)[C@H]1CC[C@H]2[C@@H]3[C@H](O)C[C@@H]4C[C@H](O)CC[C@]4(C)[C@H]3C[C@H](O)[C@]12C [TCAS, taurocholic acid, reference compound], the “IC50, USP2a activity, Ub-AMC Assay” value [1] is reported as “not active”.

With C[C@H](CCC(=O)O)[C@H]1CC[C@H]2[C@@H]3[C@@H](O)C[C@@H]4C[C@H](O)CC[C@]4(C)[C@H]3CC[C@]12C [UDCA, ursodeoxycholic acid, reference compound] the “IC50, USP2a activity, Ub-AMC Assay” value [1] was “not active” and the IC50 [2] was > 100 µM.

For CN[C@@H]1C[C@H]2O[C@@](C)([C@@H]1OC)n1c3ccccc3c3c4c(c5c6ccccc6n2c5c31)C(=O)NC4 [staurosporine, reference compound], the “activity of caspases 3 and 7” value (HCT116 p53^wt cells [9]) was “strong increase”.
